± gives the uncertainty stated by the source.
Experiment: xn = mol fraction of the nth substance listed
Settings: 100 kPa

Compound `CCCC[P+](CC)(CC)CC.N#Cc1ccc[n-]1` + OCC(O)CO has an electrical conductivity (293.15 K, x1 = 0.002) of 0.0013 ± 0.0001 S/m, an electrical conductivity (293.15 K, x1 = 0.004) of 0.0027 ± 0.0003 S/m and a viscosity (293.15 K, x1 = 0.004) of 1395 ± 210 mPa·s. It also gave an electrical conductivity (293.15 K, x1 = 0.006) of 0.0041 ± 0.0004 S/m, an electrical conductivity (293.15 K, x1 = 0.008) of 0.0055 ± 0.0006 S/m and an electrical conductivity (293.15 K, x1 = 0.011) of 0.0073 ± 0.0007 S/m. For the same compound, the electrical conductivity (293.15 K, x1 = 0.014) was 0.009 ± 0.0009 S/m, the electrical conductivity (293.15 K, x1 = 0.018) was 0.0106 ± 0.0011 S/m and the viscosity (293.15 K, x1 = 0.018) was 1500 ± 230 mPa·s. It also gave an electrical conductivity (293.15 K, x1 = 0.021) of 0.0118 ± 0.0012 S/m, an electrical conductivity (293.15 K, x1 = 0.026) of 0.0135 ± 0.0014 S/m and an electrical conductivity (293.15 K, x1 = 0.029) of 0.0143 ± 0.0014 S/m. It also gave an electrical conductivity (293.15 K, x1 = 0.033) of 0.0151 ± 0.0015 S/m, an electrical conductivity (293.15 K, x1 = 0.04) of 0.0162 ± 0.0016 S/m and a viscosity (293.15 K, x1 = 0.04) of 1598 ± 250 mPa·s. The electrical conductivity (293.15 K, x1 = 0.047) was 0.0175 ± 0.0018 S/m, the electrical conductivity (293.15 K, x1 = 0.058) was 0.0181 ± 0.0018 S/m and the viscosity (293.15 K, x1 = 0.058) was 1701 ± 260 mPa·s. For the same compound, the electrical conductivity (293.15 K, x1 = 0.068) was 0.0188 ± 0.0019 S/m, the electrical conductivity (293.15 K, x1 = 0.08) was 0.0186 ± 0.0019 S/m and the viscosity (293.15 K, x1 = 0.08) was 1713 ± 270 mPa·s. For the same compound, the electrical conductivity (293.15 K, x1 = 0.104) was 0.0187 ± 0.0019 S/m, the viscosity (293.15 K, x1 = 0.104) was 1609 ± 250 mPa·s and the electrical conductivity (293.15 K, x1 = 0.129) was 0.0185 ± 0.0019 S/m. It also gave a viscosity (293.15 K, x1 = 0.129) of 1486 ± 230 mPa·s, an electrical conductivity (293.15 K, x1 = 0.187) of 0.018 ± 0.0018 S/m and a viscosity (293.15 K, x1 = 0.187) of 1202 ± 180 mPa·s. It also gave an electrical conductivity (293.15 K, x1 = 0.259) of 0.0182 ± 0.0018 S/m, a viscosity (293.15 K, x1 = 0.259) of 930 ± 140 mPa·s and an electrical conductivity (293.15 K, x1 = 0.34) of 0.0225 ± 0.0023 S/m. For the same compound, the viscosity (293.15 K, x1 = 0.34) was 740 ± 110 mPa·s, the electrical conductivity (293.15 K, x1 = 0.442) was 0.0297 ± 0.0031 S/m and the viscosity (293.15 K, x1 = 0.442) was 589 ± 88 mPa·s. It also gave an electrical conductivity (293.15 K, x1 = 0.577) of 0.0413 ± 0.0043 S/m, a viscosity (293.15 K, x1 = 0.577) of 479 ± 71 mPa·s and an electrical conductivity (293.15 K, x1 = 0.743) of 0.0623 ± 0.0063 S/m. The viscosity (293.15 K, x1 = 0.743) was 359 ± 52 mPa·s, the electrical conductivity (293.15 K, x1 = 0.85) was 0.0878 ± 0.0089 S/m and the viscosity (293.15 K, x1 = 0.85) was 250 ± 36 mPa·s. The electrical conductivity (293.15 K, x1 = 1) was 0.147 ± 0.015 S/m, the viscosity (293.15 K, x1 = 1) was 187 ± 27 mPa·s and the viscosity (298.15 K, x1 = 0.004) was 880 ± 130 mPa·s. The viscosity (298.15 K, x1 = 0.018) was 950 ± 140 mPa·s, the viscosity (298.15 K, x1 = 0.04) was 1015 ± 150 mPa·s and the viscosity (298.15 K, x1 = 0.058) was 1080 ± 170 mPa·s. The viscosity (298.15 K, x1 = 0.08) was 1086 ± 170 mPa·s, the viscosity (298.15 K, x1 = 0.104) was 1023 ± 160 mPa·s and the viscosity (298.15 K, x1 = 0.129) was 930 ± 140 mPa·s. For the same compound, the viscosity (298.15 K, x1 = 0.187) was 770 ± 120 mPa·s, the viscosity (298.15 K, x1 = 0.259) was 603 ± 90 mPa·s and the viscosity (298.15 K, x1 = 0.34) was 487 ± 72 mPa·s. It also gave a viscosity (298.15 K, x1 = 0.442) of 398 ± 59 mPa·s, a viscosity (298.15 K, x1 = 0.577) of 323 ± 47 mPa·s and a viscosity (298.15 K, x1 = 0.743) of 242 ± 35 mPa·s. The viscosity (298.15 K, x1 = 0.85) was 175 ± 25 mPa·s, the viscosity (298.15 K, x1 = 1) was 137 ± 19 mPa·s and the viscosity (303.15 K, x1 = 0.004) was 562 ± 83 mPa·s. It also gave a viscosity (303.15 K, x1 = 0.018) of 599 ± 89 mPa·s, a viscosity (303.15 K, x1 = 0.04) of 648 ± 96 mPa·s and a viscosity (303.15 K, x1 = 0.058) of 690 ± 100 mPa·s. It also gave a viscosity (303.15 K, x1 = 0.08) of 690 ± 100 mPa·s, a viscosity (303.15 K, x1 = 0.104) of 655 ± 98 mPa·s and a viscosity (303.15 K, x1 = 0.129) of 569 ± 85 mPa·s. The viscosity (303.15 K, x1 = 0.187) was 483 ± 71 mPa·s, the viscosity (303.15 K, x1 = 0.259) was 386 ± 57 mPa·s and the viscosity (303.15 K, x1 = 0.34) was 318 ± 46 mPa·s. The viscosity (303.15 K, x1 = 0.442) was 265 ± 39 mPa·s, the viscosity (303.15 K, x1 = 0.577) was 220 ± 32 mPa·s and the viscosity (303.15 K, x1 = 0.743) was 168 ± 24 mPa·s. The viscosity (303.15 K, x1 = 0.85) was 123 ± 17 mPa·s, the viscosity (303.15 K, x1 = 1) was 104 ± 15 mPa·s and the viscosity (313.15 K, x1 = 0.004) was 226 ± 33 mPa·s. For the same compound, the viscosity (313.15 K, x1 = 0.018) was 234 ± 34 mPa·s, the viscosity (313.15 K, x1 = 0.04) was 256 ± 38 mPa·s and the viscosity (313.15 K, x1 = 0.058) was 282 ± 41 mPa·s. The viscosity (313.15 K, x1 = 0.08) was 277 ± 41 mPa·s, the viscosity (313.15 K, x1 = 0.104) was 268 ± 39 mPa·s and the viscosity (313.15 K, x1 = 0.129) was 222 ± 33 mPa·s. The viscosity (313.15 K, x1 = 0.187) was 200 ± 29 mPa·s, the viscosity (313.15 K, x1 = 0.259) was 166 ± 24 mPa·s and the viscosity (313.15 K, x1 = 0.34) was 142 ± 21 mPa·s. The viscosity (313.15 K, x1 = 0.442) was 123 ± 18 mPa·s, the viscosity (313.15 K, x1 = 0.577) was 107 ± 15 mPa·s and the viscosity (313.15 K, x1 = 0.743) was 81 ± 12 mPa·s. It also gave a viscosity (313.15 K, x1 = 0.85) of 62 ± 9 mPa·s and a viscosity (313.15 K, x1 = 1) of 62 ± 9 mPa·s.

From the CheMixHub ionic liquid set
